US10464918B2, “Process of making somatostatin modulators” (Crinetics Pharmaceuticals, Inc., priority 2018, dated 2019)
≈ marks a conversion by molar mass, not a printed value. Where a name gives a salt, the structure may show the parent alone. Read-outs that look alike come from different tables or passages of the source. One block for each molecule: values may come before it.

Assays:
human SSTR2 = human SSTR2 (Homo sapiens (Human), UniProt P30874); test: Functional cAMP assay for SSTR2 agonists; format: cell-based; details: inhibition of cAMP activities via human SST2R; CHO-K1 cells stably expressing human SSTR2
Sequence of human SSTR2 (P30874 whole entry): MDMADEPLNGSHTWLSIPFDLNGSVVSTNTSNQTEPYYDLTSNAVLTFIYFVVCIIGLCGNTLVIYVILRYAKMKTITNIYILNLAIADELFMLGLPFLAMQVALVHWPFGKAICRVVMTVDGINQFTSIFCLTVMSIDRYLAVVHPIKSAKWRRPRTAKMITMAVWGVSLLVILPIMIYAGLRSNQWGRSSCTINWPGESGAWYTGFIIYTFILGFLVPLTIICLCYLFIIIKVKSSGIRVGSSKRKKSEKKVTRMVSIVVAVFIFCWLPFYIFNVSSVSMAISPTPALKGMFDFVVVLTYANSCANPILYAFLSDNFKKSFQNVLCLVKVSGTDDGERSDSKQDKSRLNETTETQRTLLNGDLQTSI
Method: General overview: All five SSTR subtypes are Gi coupled G-protein coupled receptors (GPCRs) that lead to decreases in intracellular cyclic AMP (cAMP) when activated by an agonist. […] Human SSTR2 intracellular cAMP assay is described below. The human SSTR1, 3, 4 and 5 assays follow the same protocol of SSTR2.
The cells are cultured at 37° C., 5% CO2 and 95% humidity. […] The cells are incubated for 20 minutes at 37° C. […] The cells are treated with 50 μL of lysis buffer (HRTF cAMP kit, Cisbio). The lysate is transferred to 384-well plates and cAMP detection and visualization antibodies are added and incubated for 1-24 hours at room temperature. The time-resolved fluorescent signal is read with a Tecan M1000Pro multiplate reader. The intracellular cAMP concentrations are calculated by regression to a standard curve and are plotted vs. the concentration of the compounds of the invention and the EC50 of the compounds are calculated using standard methods. All data manipulations are in GraphPad Prism v6.

[1] = Solubility in water, FaSSGF and FaSSIF (slurry, HPLC); format: physicochemical; details: slurried at 37° C. for 2 days; for solubility at 2 days: 37 °C, thermodynamic from solid
Method: The salt forms were slurried in water, Fasted State Simulated Gastric Fluid (FaSSGF), and Fasted State Simulated Intestinal Fluid (FaSSIF) at 37° C. for 2 days. Part of the slurry was filtered using a […] syringe filter to recover the supernatant for solubility measurement and the rest was filtered to recover the remaining solid for XRPD analysis.
A calibration curve was developed for measuring concentration via HPLC. Compound A was added to a 100 mL volumetric flask and then filled to the volume with HPLC grade ethanol. […] A 30 minute gradient method with Solvent A as water with 0.1% TFA and solvent B as Methanol:Acetonitrile (1:1) was used.
The calibration correlation was used to measure the solubility of the salt forms. From the clear saturated solution, 0.1 mL liquid was transferred into a 10 mL vial and then filled to the volume with methanol. The solution was then directly injected into the HPLC.

[2] = Dynamic Vapor Sorption (DVS); format: physicochemical; details: for XRPD after DVS analysis: DVS between 2 and 95% RH
Method: Dynamic Vapor Sorption (DVS) was done using a DVS Intrinsic 1. The sample is loaded into a sample pan and suspended from a microbalance. A typical sample mass for DVS measurement is 25 mg. Nitrogen gas bubbled through distilled water provides the desired relative humidity.
A typical measurement includes the steps: • 1—Equilibrate at 50% RH • 2—50% to 2%. (50%, 40%, 30%, 20%, 10% and 2%) • a. Hold minimum of 5 mins and maximum of 60 minutes at each humidity. The pass criteria is less than 0.002% change • 3—2% to 95% (2%, 10%, 20%, 30%, 40%, 50%, 60%, 70%, 80%, 90%, 95%) • a. Hold minimum of 5 mins and maximum of 60 minutes at each humidity. The pass criteria is less than 0.002% change • 4—95% to 2% (95%, 80%, 70%, 60%, 50%, 40%, 30%, 20%, 10%, 2%) • a. Hold minimum of 5 mins and maximum of 60 minutes at each humidity. The pass criteria is less than 0.002% change • 5—2% to 50% (2%, 10%, 20%, 30%, 40%, 50%) • a. Hold minimum of 5 mins and maximum of 60 minutes at each humidity. The pass criteria is less than 0.002% change

[3] = Thermal study (TGA/DSC heating followed by XRPD); format: physicochemical; details: heated by TGA/DSC, cooled to RT
Method: Differential Scanning calorimetry (DSC) was done using a Mettler Toledo DSC3+. Aluminum crucible with cramped pinned lid were used. The heating rates are usually 10° C. per minute from 30 to 250° C. Thermogravimetric Analysis (TGA) was done using a Mettler Toledo TGA/DSC3+. Aluminum crucible with cramped pinned lid were used. The heating rates are usually 10° C. per minute from 30 to 250° C. […] These peaks were evaluated using thermal analysis and XRPD techniques. Compound A-HCl was heated to various temperatures using TGA/DSC followed by cooling to room temperature and analysis using XRPD. […] The following thermal treatments were performed: Sample 1: heated the salt to 100° C. and cooled to RT followed by XRPD; Sample 2: heated the salt to 150° C. and cooled to RT followed by XRPD; Sample 3: heated the salt to 200° C. and cooled to RT followed by XRPD; Sample 4: heated the salt to 250° C. and cooled to RT followed by XRPD; and Sample 5: heated the salt to 295° C. and cooled to RT followed by XRPD.

[4] = Fasted State Simulated Gastric Fluid (FaSSGF), fassgf or other biorelevant, Fasted State Simulated Gastric Fluid, read-out: Solubility in FaSSGF
[5] = Fasted State Simulated Intestinal Fluid (FaSSIF), fassif, Fasted State Simulated Intestinal Fluid, read-out: Solubility in FaSSIF

Compound: N#Cc1ccnc(-c2ccc3ncc(-c4cc(F)cc(Cl)c4)c(N4CC[C@@H]5NCCO[C@H]5C4)c3c2)c1N [Compound 1-5, 2-{4-[(4aS,8aS)-octahydro-1H-pyrido[3,4-b][1,4]oxazin-6-yl]-3-(3-chloro-5-fluorophenyl)quinolin-6-yl}-3-aminopyridine-4-carbonitrile]
EC50 (human SSTR2): < 0.01 µM

Compound: CO/N=C/c1ccnc(-c2ccc3ncc(-c4cc(C)cc(F)c4)c(N4CC[C@@H]5NCCO[C@H]5C4)c3c2)c1N [Compound 1-2, 2-{4-[(4aS,8aS)-octahydro-1H-pyrido[3,4-b][1,4]oxazin-6-yl]-3-(3-fluoro-5-methylphenyl)quinolin-6-yl}-4-[(1E)-(methoxyimino)methyl]pyridin-3-amine]
EC50 (human SSTR2): < 0.01 µM

Compound: N#Cc1cccc(-c2ccc3ncc(-c4cc(F)cc(F)c4)c(N4CCC(N)CC4)c3c2)c1O [Compound A-2HCl, 3-[4-(4-amino-piperidin-1-yl)-3-(3,5-difluoro-phenyl)-quinolin-6-yl]-2-hydroxy-benzonitrile dihydrochloride]
Solubility in FaSSGF ([1]; Fasted State Simulated Gastric Fluid, dihydrochloride): 3.69 mg/mL
Solubility in FaSSIF ([1]; Fasted State Simulated Intestinal Fluid, dihydrochloride): 0.011 mg/mL
Solubility in Water ([1]; water, dihydrochloride): 5.63 mg/mL
XRPD after DVS analysis [2]: unchanged
reversible water uptake ([2]; between 2 and 95% RH): ~18 % w/w
reversible water uptake ([2]; between 15 and 75% RH): ~9 % w/w

Compound: CO/N=C/c1ccnc(-c2ccc3ncc(-c4cc(F)cc(Cl)c4)c(N4CC[C@@H]5NCCO[C@H]5C4)c3c2)c1N [Compound 1-3, 2-{4-[(4aS,8aS)-octahydro-1H-pyrido[3,4-b][1,4]oxazin-6-yl]-3-(3-chloro-5-fluorophenyl)quinolin-6-yl}-4-[(1E)-(methoxyimino)methyl]pyridin-3-amine]
EC50 (human SSTR2): < 0.01 µM

Compound: N#Cc1cccc(-c2ccc3ncc(-c4cc(F)cc(F)c4)c(N4CCC(N)CC4)c3c2)c1O [Compound A, 3-(4-(4-amino-piperidin-1-yl)-3-(3,5-difluoro-phenyl)-quinolin-6-yl)-2-hydroxy-benzonitrile]
EC50 (human SSTR2): < 0.01 µM
solubility at 2 days [1, 4]: 2.43 mg/mL (≈ 5320 µM)
solubility at 2 days [1, 5]: 0.013 mg/mL (≈ 28.5 µM)
Solubility in Water ([1]; water, listed as Compound A (free base)): 0.005 mg/mL (≈ 11 µM)

Compound: Cl.N#Cc1cccc(-c2ccc3ncc(-c4cc(F)cc(F)c4)c(N4CCC(N)CC4)c3c2)c1O [Compound A-HCl, 3-[4-(4-amino-piperidin-1-yl)-3-(3,5-difluoro-phenyl)-quinolin-6-yl]-2-hydroxy-benzonitrile monohydrochloride]
temperature up to which the solid is intact [3]: up to 200 °C
solubility at 2 days [1, 4]: 2.12 mg/mL
solubility at 2 days [1, 5]: 0.01 mg/mL
solubility at 2 days ([1]; water, water, water, read-out: Solubility in Water): 0.83 mg/mL
XRPD after DVS analysis [2]: unchanged
reversible water uptake ([2]; between 2 and 95% RH): ~4.5 % w/w
reversible water uptake ([2]; between 15 and 75% RH): ~2.3 % w/w

Other lines, results leading:

EC50 (human SSTR2): < 0.01 µM
Compound: O/N=C/c1cccc(-c2ccc3ncc(-c4cc(F)cc(F)c4)c(N4CC[C@@H]5NCCO[C@H]5C4)c3c2)c1O [Compound 1-1, 2-{4-[(4aS,8aS)-octahydro-1H-pyrido[3,4-b][1,4]oxazin-6-yl]-3-(3,5-difluorophenyl)quinolin-6-yl}-6-[(1E)-(hydroxyimino)methyl]phenol]

EC50 (human SSTR2): < 0.01 µM
Compound: N#Cc1ccnc(-c2ccc3ncc(-c4cccc(F)c4)c(N4CC[C@@H]5NCCO[C@H]5C4)c3c2)c1N [Compound 1-7, 2-{4-[(4aS,8aS)-octahydro-1H-pyrido[3,4-b][1,4]oxazin-6-yl]-3-(3-fluorophenyl)quinolin-6-yl}-3-aminopyridine-4-carbonitrile]

EC50 (human SSTR2): < 0.01 µM
Compound: Cc1ccnc(-c2ccc3ncc(-c4cccc(F)c4)c(N4CC[C@@H]5NCCO[C@H]5C4)c3c2)c1N [Compound 1-8, 2-{4-[(4aS,8aS)-octahydro-1H-pyrido[3,4-b][1,4]oxazin-6-yl]-3-(3-fluorophenyl)quinolin-6-yl}-4-methylpyridin-3-amine]

EC50 (human SSTR2): < 0.01 µM
Compound: Cc1cc(F)cc(-c2cnc3cc(F)c(-c4cccc(C#N)c4O)cc3c2N2CCC(N)CC2)c1 [Compound 1-10, 3-[4-(4-aminopiperidin-1-yl)-7-fluoro-3-(3-fluoro-5-methylphenyl)quinolin-6-yl]-2-hydroxybenzonitrile]

EC50 (human SSTR2): < 0.01 µM
Compound: Cc1cc(F)cc(-c2cnc3ccc(-c4cccc(C#N)c4O)c(F)c3c2N2CCC(N)CC2)c1 [Compound 1-9, 3-[4-(4-aminopiperidin-1-yl)-5-fluoro-3-(3-fluoro-5-methylphenyl)quinolin-6-yl]-2-hydroxybenzonitrile]

EC50 (human SSTR2): < 0.01 µM
Compound: Cc1cc(F)cc(-c2cnc3ccc(-c4nccc(C#N)c4N)cc3c2N2CC[C@@H]3NCCO[C@H]3C2)c1 [Compound 1-4, 2-{4-[(4aS,8aS)-octahydro-1H-pyrido[3,4-b][1,4]oxazin-6-yl]-3-(3-fluoro-5-methylphenyl)quinolin-6-yl}-3-aminopyridine-4-carbonitrile]

EC50 (human SSTR2): < 0.01 µM
Compound: Nc1c(/C=N/O)ccnc1-c1ccc2ncc(-c3cc(F)cc(F)c3)c(N3CC[C@@H]4NCCO[C@H]4C3)c2c1 [Compound 1-6, 2-{4-[(4aS,8aS)-octahydro-1H-pyrido[3,4-b][1,4]oxazin-6-yl]-3-(3,5-difluorophenyl)quinolin-6-yl}-4-[(1E)-(hydroxyimino)methyl]pyridin-3-amine]
